In brackets after ≈: the same amount, converted by molar mass. Read-outs that look alike come from different tables or passages of the source. Marks after values point to notes of the source that are not given here. Where no end group is shown, it is not given here. A value given as a limit tells only on which side of the number the result lay.

One test deals with HT29 cells. In words: cells. It is filed as cell-based. The settings on record: Homo sapiens, HT-29, Table 26, read-out: % inhibition of the growth of HT29 cells. The text has this:
N-phthalimidoglutarimide (thalidomide) is a molecule that has a great variety of properties, such as a teratogenic effect, reduction of the production of TNF-α by the monocytes and suppression of angiogenesis. It has been shown that the teratogenic activity depends on the glutarimide residue, while the antiangiogenic effect depends on the phthaloyl group. We therefore prepared peptide SEQ ID NO: 46 derived from peptide SEQ ID NO: 26 (HBP3)2 and added glycyl phthaloyl in N-terminal. The technique used to test the activity of phthaloyl-HBP3 is the same as the one previously described for aspirin. The results of the inhibition of the growth (%) of HT29 cells shown in Table 27 are calculated as a percentage of the mean optical density in the wells of cells containing dilutions of the samples being tested and the mean optical density of the wells of cells that received only medium.

Test [1] relates to Enterococcus faecalis (ATCC 29212). In words: microbe, parasite or virus in culture. In kind it is cell-based. As for the experimental part:
(§1) The gram-positive bacterial strains are: Enterococcus faecalis (ATCC 29212), and Staphylococcus aureus (ATCC 25923) and the gram-negative strains are: Escherichia coli (ATCC 25922), Pseudomonas aeruginosa (ATCC 27853) and Salmonella typhimurim (clinical isolate), Salmonella typhiTy2 (WHO). The bacteria are cultured with shaking all night at 37° C., then recultured at a dilution of 1:50 in some fresh Luria-Bertani (LB) medium for 2 hours. The bacterial concentration is adjusted to […], and 50 μl is distributed in 96-well plates with an equal volume of peptides diluted half and half (256-0.5 μg/ml) in LB medium. […] To determine the minimum bactericide concentration, 10 μl from each well is spread on gelose plates in LB medium.
(§2) The results are expressed as the peptide concentration in MBC (μM).

Test [2] concerns Escherichia coli (ATCC 25922). The test can be described thus: microbe, parasite or virus in culture. In kind it is cell-based. How it is done:
as §1, §2

In test [3] the test system is Pseudomonas aeruginosa (ATCC 27853). In words: microbe, parasite or virus in culture. In kind it is cell-based. As for the experimental part: as §1, §2
In test [4] the test system is Staphylococcus aureus (ATCC 25923). In words: microbe, parasite or virus in culture. It is filed as cell-based. How it is done: as §1, §2
The test system of test [5] is Salmonella typhimurim (clinical isolate). In words: Antibacterial activity of cationic peptides (MBC). It is filed as cell-based. As to conditions: S. typhimurium. How it is done:
as §1, §2

In test [6] the test system is Salmonella typhiTy2 (WHO). In words: microbe, parasite or virus in culture. In kind it is cell-based, S. typhi-Ty2. As for the experimental part:
as §1, §2

A further test has as its system CHO cells. The test can be described thus: In vitro transfection with luciferase plasmid using peptides. As to conditions: for luciferase expression RLU: 3 μg of plasmid PCMV-LUC and 3.3 nmoles of peptide. It is filed as cell-based, Chinese hamster. As for the experimental part:
The plasmid used is PCMV-LUC (6.4 kb) carrying the luciferase gene under the control of the promoter of the human cytomegalovirus.
The plasmid-peptide complexes are prepared by adding 3 μg of plasmid to 50 μl of NaCl, 0.15 M and 3.3 nmoles of SEQ ID NO: 22 and 23 for 15 minutes. The complexes are prepared in triplicate.
CHO cells are cultivated in the complete medium MEM Alpha containing 6% fetal calf serum and sown with 5×10^4 cells per well on a 24-well plate the evening before the experiment. The wells are then emptied of the medium, and the plasmid-peptide complex is added to them (3 μg of plasmid and 3.3 nmoles of peptide in 0.5 ml of complete medium for 5 hours at 37° C.). The medium is then replaced with the complete medium, and the culture is continued for 18-20 hours. The cells are then washed three times with PBS, then lysed with 100 μl of lysis buffer (Promega) containing 1% Triton X-100 and 2 mM DTT.
Then a 15 μl sample of the lysate is taken to measure the luciferase with the Promega luciferin kit and 15 other μl to calculate the quantity of proteins in the lysate using the Bradford Test. The relative luciferase units (RLU) are reported in mg of proteins.

For a further test, the system named is 3T3 cells. The description is as above. In kind it is cell-based, mouse. The settings on record: for RLU value relative to peptide SEQ ID NO: 41: 3T3 cells; for luciferase expression RLU: peptide and plasmid pCMVLUC complexed at 1.6 nmoles/μg. As for the experimental part:
Technique: The plasmid pCMVLUC (carrying the gene for luciferase) provided by Qiagen is used according to their instructions. 3T3 cells are sown the night before in 24-well plates (8×10^4 cells/well) in the complete culture medium.
The peptides and the plasmid are complexed in a ratio of 1.6 nmoles/μg in 50 μl of NaCl 0.15M for 20 minutes at laboratory temperature. The cells are then washed, and the peptide-plasmid complex added to the cells in 0.5 ml of complete medium. After 5 hours of incubation at 37° C., the reaction medium is eliminated, and 1 ml of complete medium is added to the cells. After 24 hours of culture, the cells are then washed 3 times with PBS and lysed with 100 μl of lysis buffer (Promega) containing 1% Triton X-100 and 2 mM DTT for 15 minutes. The luciferase test is done on the cell lysate after centrifugation. The quantity of protein in the lysate is measured using the Bradford Test (Bio-Rad) and calculated according to a curve established with bovine gamma globulins. The luciferase activity is estimated on 15 μl of lysate plus 100 μl of reagent of luciferase containing luciferin (Promega). The relative luciferase units (RLU) are measured in a luminometer (Berthold Systems) and reported in mg of protein.

The test system of the next test is cells. The test can be described thus: Penetration of biotinylated peptides inside cells (microscopy, S-PO coloration). As to conditions: biotinylated peptides 50 to 6 μg/ml, 1-18 hours, revealed with S-PO. In kind it is cell-based. As for the experimental part:
The cells are cultivated in the presence of the different peptides carrying, on the N-terminal side, biotin in decreasing concentrations (50 to 6 μg/ml) in the culture medium for variable times (1-18 hours).
At the end of the culture, the cells are washed three times with PBS (0.15 M NaCl buffered with 0.01 M potassium phosphate buffer pH 7.4) then fixed 15 minutes in ethanol at −20° C. The penetration of the peptide is evaluated after incubation for 30 minutes with streptavidin conjugated with peroxidase (abbreviated S-PO for streptavidin-peroxidase). Then, the S-PO is eliminated, and the cells are washed. […] With the other peptides, positive colorations, but of variable intensity, were noted.

For a further test, the system named is H1299 cells. The test can be described thus: Internalization of biotinylated peptide/S-PO complexes. The settings on record: peptide: S-PO complexes of 4:1, peptide concentration of 1 μg. In kind it is cell-based, human. In a few lines:
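Biotinylated peptides precomplexed 15 min with streptavidin- or avidin-peroxidase at 25:1 or 4:1 peptide:conjugate molar ratio in PBS, diluted in complete medium and incubated with H1299 cells for 4 h. After washing and lysis, internalised peroxidase quantified with ortho-dianisidine/H2O2 at 450 nm against an S-PO standard curve, as pg per 10^4 cells.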

Test [7] has as its system gram-positive and gram-negative bacterial strains. The test can be described thus: Antibacterial activity of cationic peptides, summary over strains. It is filed as cell-based. As to conditions: summary of Table 29. How it is done:
as §1
However, when peptide HPB13 (SEQ ID NO: 38) is coupled with peptide SEQ ID NO: 24, it enhances its activity by a factor of 50 to 100 (peptide SEQ ID NO: 45). […] None these peptides are active on gram-positive bacteria.

In the case of `CC(=O)Oc1ccccc1C(=O)O` [Natural aspirin, aspirin, reference compound], in the test with HT29 cells (100 μg/ml), the inhibition (usually the share of the control response that was lost under treatment) at 100 µg/mL turned out to be 0%. Moreover, the inhibition at 200 µg/mL with HT29 cells (200 μg/ml) came to 3%. In the test with HT29 cells (500 μg/ml), the inhibition at 500 µg/mL stood at 6%. Moreover, in the test on HT29 cells (1000 μg/ml), the inhibition at 1000 µg/mL is 48%.

Regarding `CC(C)C[C@H](NC(=O)[C@H](CCCCN)NC(=O)[C@H](C)NC(=O)[C@H](CC(C)C)NC(=O)[C@H](CCCCN)NC(=O)[C@H](CCCCN)NC(=O)[C@H](C)NC(=O)[C@H](CC(C)C)NC(=O)[C@H](CCCCN)NC(=O)[C@H](C)NC(=O)[C@H](CC(C)C)NC(=O)[C@@H](N)CCCCN)C(=O)N[C@@H](C)C(=O)N[C@@H](CCCCN)C(=O)O` [SEQ ID NO: 24, reference compound], the MBC in test [1] (E. faecalis) was greater than 110 µM; in [2] (E. coli, read-out: MBC) it was 55 µM (≈ 83.8 µg/mL); in test [3] (P. aeruginosa) it was 27.5 µM (≈ 41.9 µg/mL); in test [4] (S. aureus) it was greater than 110 µM; in test [5], 110 µM (≈ 168 µg/mL); in test [6] (S. typhi-Ty2) it was 27.5 µM (≈ 41.9 µg/mL).

With “KLAKLAKKLAKLAKGKRKKKGKLGKKRDP [SEQ ID NO: 44]”, the MBC in [1] (E. faecalis) was greater than 110 µM; in test [2] (E. coli, read-out: MBC), 1.7 µM; in [3] (P. aeruginosa), greater than 110 µM; in test [4] (S. aureus) it was greater than 110 µM; in [5] it was 1.27 µM; in test [6] (Ty2 (WHO)), 0.64 µM.

Regarding “KLAKLAKKLAKLAKKHLKKHLKKHLK [SEQ ID NO: 45]”, the MBC in test [1] (E. faecalis) is greater than 680 µM; in [2] (E. coli, read-out: MBC), 1 µM; in test [3] (P. aeruginosa), 0.5 µM; in [4] (S. aureus), greater than 680 µM; in test [5] it was 1 µM; in test [6] (Ty2 (WHO)), 0.66 µM.

As for “SEQ ID NO: 22: Peptide containing 12 lysines (K) and SEQ ID NO: 6 (KKKKKKKKKKKKTYYSDTVKGRFTRQKYNKRA; Mus musculis x Rattus norvegicus)”, in the test on CHO cells, the “luciferase expression RLU” value is 1.9 10^6/mg of proteins.

As to “SEQ ID NO: 23: Peptide containing 12 lysines (K) and SEQ ID NO: 5 (KKKKKKKKKKKKVKRGLKLRQKYNKRAMDY; Mus musculis x Rattus norvegicus)”, in the test on CHO cells, the “luciferase expression RLU” value was 11.5 10^6/mg of proteins. In addition, the “increase of luciferase expression compared with SEQ ID NO: 22” value in the test with CHO cells (CHO cells) came to 6 times.

Regarding “SEQ ID NO: 40: SEQ ID NO: 10 (1047) plus 13 N-terminal lysines (KKKKKKKKKKKKKVKRGLKLRHVRPRVTRMDV; listed as Homo sapiens)”, in the test on 3T3 cells, the “RLU value relative to peptide SEQ ID NO: 41” value stood at 2.6 times and the “luciferase expression RLU” value is on record as 1.9 × 10^6/mg of protein.

Consider “SEQ ID NO: 41: SEQ ID NO: 28 (HBP3)2) plus 13 N-terminal lysines (KKKKKKKKKKKKKSERKKRRRESRKKRRRES; listed as Homo sapiens)”, for which the “luciferase expression RLU” value with 3T3 cells was 0.9 × 10^6/mg of protein.

For “SEQ ID NO: 42: SEQ ID NO: 39 (HBP10) plus 13 N-terminal lysines (KKKKKKKKKKKKKSRRARRSPRHLGSG; listed as Homo sapiens)”, in the test with 3T3 cells, the “RLU value relative to peptide SEQ ID NO: 41” value was found to be 5.5 times and the “luciferase expression RLU” value is recorded as 5 × 10^6/mg of protein.

Regarding VKRGLKLVKRGLKL [SEQ ID NO: 2], in the test with cells, the intracellular cytochemical coloration entry was “Faint coloration”. Moreover, the S-PO internalized with H1299 cells is 84 pg/10^4 cells. The MBC in test [1] (ATCC 29212) is greater than 160 µM; in test [2] (ATCC 25922), >160* μM; in test [3] (ATCC 27853), greater than 160 µM; in test [4] (ATCC 25923), greater than 160 µM; in [5] it was greater than 160 µM. Further, in test [7], the “bactericide / anti-microbial activity” value is listed as “not active”.

Source of the values: patent US8003595B2, “Amino acid sequences facilitating penetration of a substance of interest into cells and/or cell nuclei” (Cellectis, priority 2000, dated 2011).
